Data published in patent US9120749B2, “Quinoline derivatives and MELK inhibitors containing the same” (ONCOTHERAPY SCIENCE, INC., priority 2010, dated 2015).
Where a name gives a salt, the structure may show the parent alone. Read-outs that look alike come from different tables or passages of the source.

How the values were obtained:
MELK = MELK (Homo sapiens, UniProt Q14680); experiment: Kinase assay: MELK activity, phosphorylation of FITC-labeled histone H3 peptide measured by IMAP fluorescence polarization; assay type: biochemical; conditions: read-out: IC50 (μM) (kinase assay)
Outline: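 FP readout: FITC-histone H3 peptide phosphorylation, read 0.5 h (RT) after stopping with 3x volume of IMAP progressive binding solution. Final DMSO 1%.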

T47D cells = experiment: Cell-based assay: anti-proliferative activity, Cell Counting Kit-8, 72 hours (T47D)
Outline: (§1)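 Cellular growth is read by CCK-8 colorimetric kit 72 h after inhibitor addition to seeded cells, and IC50 values are derived from the resulting data; MELK protein levels in these lines are checked beforehand by immunoblotting whole crude lysate.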

A549 cells = experiment: Cell-based assay: anti-proliferative activity, Cell Counting Kit-8, 72 hours (A549); conditions: 72 hours
Outline: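 Cell Counting Kit-8 read-out of A549 growth after 72 hours of inhibitor exposure, cells plated in 96-well format. Values reported as IC50.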

HT-1197 cells = experiment: Cell-based assay: anti-proliferative activity, Cell Counting Kit-8, 72 hours (HT-1197, negative control without MELK expression); conditions: HT1197 cells (negative control), 72 hours
Outline: as §1

DU4475 cells = experiment: Cell-based assay: anti-proliferative activity, Cell Counting Kit-8, 72 hours (DU4475)

Sequence of MELK (Q14680 whole entry, looked up): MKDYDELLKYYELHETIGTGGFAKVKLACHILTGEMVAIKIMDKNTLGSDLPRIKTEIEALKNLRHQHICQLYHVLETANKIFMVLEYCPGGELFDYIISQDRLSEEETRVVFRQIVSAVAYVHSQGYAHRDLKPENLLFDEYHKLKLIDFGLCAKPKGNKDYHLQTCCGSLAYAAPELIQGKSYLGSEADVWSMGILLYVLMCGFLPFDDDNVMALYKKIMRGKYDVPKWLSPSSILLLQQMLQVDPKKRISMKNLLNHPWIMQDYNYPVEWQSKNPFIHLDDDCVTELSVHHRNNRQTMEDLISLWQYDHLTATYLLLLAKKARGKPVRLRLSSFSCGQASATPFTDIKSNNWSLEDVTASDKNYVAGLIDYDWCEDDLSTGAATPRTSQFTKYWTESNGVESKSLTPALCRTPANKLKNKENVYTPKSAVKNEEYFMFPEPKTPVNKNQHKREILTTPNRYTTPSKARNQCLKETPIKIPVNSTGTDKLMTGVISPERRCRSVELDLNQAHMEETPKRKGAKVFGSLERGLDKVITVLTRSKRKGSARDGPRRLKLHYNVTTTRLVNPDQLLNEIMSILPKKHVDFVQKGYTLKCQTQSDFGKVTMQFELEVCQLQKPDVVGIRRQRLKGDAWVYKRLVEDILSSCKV

SMILES	IC50 (MELK)	IC50 (T47D cells; Homo sapiens, T47D, 72 h)	IC50 (A549 cells; Homo sapiens, A549, 72 h)	IC50 (HT-1197 cells; Homo sapiens, HT1197, 72 h)	IC50 (DU4475 cells; Homo sapiens, DU-4475, 72 h)	IC50 (MELK; hydrochloride)	IC50 (T47D cells; 72 hours, hydrochloride)	IC50 (A549 cells; hydrochloride)	IC50 (HT-1197 cells; hydrochloride)	IC50 (DU4475 cells; hydrochloride)
COc1cc(-c2ccc3ncc(C(=O)C4CC4)c(N[C@H]4CC[C@H](CN5CCC(OC)C5)CC4)c3c2)cc(Cl)c1O (stereo partly drawn) [Example 599]	0.005 µM	0.51 µM	0.54 µM	2.8 µM	0.37 µM	–	–	–	–	–
O=C(c1cnc2ccc(-c3cc(F)c(O)c(Cl)c3)cc2c1N[C@H]1C[C@H]2CC[C@@H](C1)N2)C1CC1 [Example 621, (4-((1R,3r,5S)-8-azabicyclo[3.2.1]octan-3-ylamino)-6-(3-chloro-5-fluoro-4-hydroxyphenyl)quinolin-3-yl)(cyclopropyl)methanone]	0.01 µM	0.24 µM	0.91 µM	3.9 µM	0.11 µM	–	–	–	–	–
COc1cc(-c2ccc3ncc(C(=O)C4CC4)c(N[C@H]4CC[C@@H](CN(C)CC#N)CC4)c3c2)cc(Cl)c1O [Example 518, 2-((((1R,4R)-4-(6-(3-chloro-4-hydroxy-5-methoxyphenyl)-3-(cyclopropanecarbonyl)quinolin-4-ylamino)cyclohexyl)methyl)(methyl)amino)acetonitrile]	0.013 µM	0.16 µM	0.17 µM	3.4 µM	0.078 µM	–	–	–	–	–
COc1cc(-c2ccc3ncc(C(=O)C(C)C)c(N[C@H]4CC[C@H](CN(C)C)CC4)c3c2)cc(Cl)c1O [Example 606]	0.0063 µM	0.65 µM	0.65 µM	1.1 µM	0.34 µM	–	–	–	–	–
NC1CCN(c2ncc(Nc3c(C(=O)C4CC4)cnc4ccc(-c5cc(F)c(O)c(Cl)c5)cc34)cn2)C1 (stereo not drawn) [Example 573, (4-(2-(3-aminopyrrolidin-1-yl)pyrimidin-5-ylamino)-6-(3-chloro-5-fluoro-4-hydroxyphenyl)quinolin-3-yl)(cyclopropyl)methanone hydrochloride]	–	–	–	–	–	0.004 µM	0.0072 µM	0.032 µM	0.57 µM	0.013 µM
COc1cc(-c2ccc3ncc(C(=O)C4CC4)c(Nc4ccc(NC5CCCNC5)nc4)c3c2)cc(Cl)c1O (stereo not drawn) [Example 609, (6-(3-chloro-4-hydroxy-5-methoxyphenyl)-4-(6-(piperidin-3-ylamino)pyridin-3-ylamino)quinolin-3-yl)(cyclopropyl)methanone]	0.0025 µM	0.22 µM	0.68 µM	3.9 µM	0.34 µM	–	–	–	–	–
CC(=O)c1cnc2ccc(-c3cc(Cl)c(O)c(Cl)c3)cc2c1Nc1ccc(C(N)=O)cc1 [Example 545, 4-(3-acetyl-6-(3,5-dichloro-4-hydroxyphenyl)quinolin-4-ylamino)benzamide]	0.019 µM	0.62 µM	3.9 µM	16 µM	0.56 µM	–	–	–	–	–
NC1CCN(c2ccc(Nc3c(C(=O)C4CC4)cnc4ccc(-c5cc(Cl)c(O)c(Cl)c5)cc34)cn2)C1 (stereo not drawn) [Example 575, (4-(6-(3-aminopyrrolidin-1-yl)pyridin-3-ylamino)-6-(3,5-dichloro-4-hydroxyphenyl)quinolin-3-yl)(cyclopropyl)methanone]	0.0031 µM	0.028 µM	0.068 µM	1.2 µM	0.029 µM	–	–	–	–	–
CCCC(=O)c1cnc2ccc(-c3cc(F)c(O)c(Cl)c3)cc2c1Nc1ccc(N2CCNCC2)nc1 [Example 623, 1-{6-(3-Chloro-5-fluoro-4-hydroxyphenyl)-4-[6-(piperazin-1-yl)pyridin-3-ylamino]quinolin-3-yl}butan-1-one]	0.011 µM	0.085 µM	0.2 µM	2 µM	0.1 µM	–	–	–	–	–
CC(C)(N)c1ccc(Nc2c(C(=O)C3CC3)cnc3ccc(-c4cc(Cl)c(O)c(Cl)c4)cc23)cc1 [Example 601, {4-[4-(2-Aminopropan-2-yl)phenylamino]-6-(3,5-dichloro-4-hydroxyphenyl)quinolin-3-yl}(cyclopropyl)methanone hydrochloride]	–	0.09 µM	0.047 µM	0.42 µM	0.023 µM	0.0014 µM	–	–	–	–
O=C(c1cnc2ccc(-c3cc(F)c(O)c(Cl)c3)cc2c1Nc1ccc(N2CCNCC2)cn1)C1CC1 [Example 525, (6-(3-chloro-5-fluoro-4-hydroxyphenyl)-4-(5-(piperazin-1-yl)pyridin-2-ylamino)quinolin-3-yl)(cyclopropyl)methanone]	0.0048 µM	0.48 µM	1.7 µM	11 µM	0.46 µM	–	–	–	–	–
COc1cc(-c2ccc3ncc(C(=O)C4CC4)c(Nc4cnn(C5CCNCC5)c4)c3c2)cc(Cl)c1O [Example 512, (6-(3-chloro-4-hydroxy-5-methoxyphenyl)-4-(1-(piperidin-4-yl)-1H-pyrazol-4-ylamino)quinolin-3-yl)(cyclopropyl)methanone]	0.0022 µM	0.41 µM	0.3 µM	2.9 µM	0.31 µM	–	–	–	–	–
CN1CCC(n2cc(Nc3c(C(=O)C4CC4)cnc4ccc(-c5cc(F)c(O)c(Cl)c5)cc34)cn2)CC1 [Example 592, (6-(3-Chloro-5-fluoro-4-hydroxyphenyl)-4-(1-(1-methylpiperidin-4-yl)-1H-pyrazol-4-ylamino)quinolin-3-yl)(cyclopropyl)methanone]	0.0015 µM	0.24 µM	0.13 µM	2.8 µM	0.068 µM	–	–	–	–	–
O=C(c1cnc2ccc(-c3cc(Cl)c(O)c(Cl)c3)cc2c1N[C@H]1C[C@H]2CC[C@@H](C1)N2)C1CC1 [Example 580, (4-((1R,3r,5S)-8-azabicyclo[3.2.1]octan-3-ylamino)-6-(3,5-dichloro-4-hydroxyphenyl)quinolin-3-yl)(cyclopropyl)methanone]	0.0045 µM	0.25 µM	0.69 µM	4.1 µM	0.12 µM	–	–	–	–	–
CN1CCN(c2c(C(=O)C3CC3)cnc3ccc(-c4cc(F)c(O)c(Cl)c4)cc23)CC1 [Example 534, (6-(3-chloro-5-fluoro-4-hydroxyphenyl)-4-(4-methylpiperazin-1-yl)quinolin-3-yl)(cyclopropyl)methanone]	0.025 µM	1.1 µM	1.4 µM	2.8 µM	0.96 µM	–	–	–	–	–
O=C(c1cnc2ccc(-c3cc(Cl)c(O)c(Cl)c3)cc2c1N[C@H]1CC[C@H](CN2CCC(O)C2)CC1)C1CC1 (stereo partly drawn) [Example 600, cyclopropyl(6-(3,5-dichloro-4-hydroxyphenyl)-4-((trans-4-((3-hydroxypyrrolidin-1-yl)methyl)cyclohexyl)amino)quinolin-3-yl)methanone]	0.00073 µM	0.078 µM	0.12 µM	0.76 µM	0.029 µM	–	–	–	–	–
COc1cc(-c2cc3c(Nc4ccc(CN(C)C)cc4)c(C(=O)C4CC4)cnc3cc2F)cc(Cl)c1O [Example 540, (6-(3-chloro-4-hydroxy-5-methoxyphenyl)-4-(4-((dimethylamino)methyl)phenylamino)-7-fluoroquinolin-3-yl)(cyclopropyl)methanone]	0.064 µM	0.89 µM	0.25 µM	3.7 µM	0.35 µM	–	–	–	–	–
NC1CCN(c2ncc(Nc3c(C(=O)C4CC4)cnc4ccc(-c5cc(Cl)c(O)c(Cl)c5)cc34)cn2)C1 (stereo not drawn) [Example 574, (4-(2-(3-aminopyrrolidin-1-yl)pyrimidin-5-ylamino)-6-(3,5-dichloro-4-hydroxyphenyl)quinolin-3-yl)(cyclopropyl)methanone]	0.0018 µM	0.031 µM	0.087 µM	1.4 µM	0.021 µM	–	–	–	–	–
